Data reported in PubChem BioAssay (NCI).
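Assay format: 96-well plates, 48-hour exposure. GI50 marks 50% less growth. At the TGI there is no net growth.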

What was measured:
Experiment in all cases: growth of human tumour cells (NCI), 48 h
[1] = test system: KM12 colon
[2] = test system: BT-549 breast
[3] = test system: A549 NSCLC
[4] = test system: T-47D breast
[5] = test system: TK-10 renal
[6] = test system: A498 renal
[7] = test system: SNB-78 CNS
[8] = test system: EKVX NSCLC
[9] = test system: SNB-75 CNS
[10] = test system: HCC-2998 colon
[11] = test system: SNB-19 CNS
[12] = test system: UO-31 renal
[13] = test system: NCI/ADR-RES ovarian
[14] = test system: PC-3 prostate
[15] = test system: CCRF-CEM leukemia
[16] = test system: M19-MEL melanoma
[17] = test system: COLO 205 colon
[18] = test system: K-562 leukemia
[19] = test system: SK-MEL-28 melanoma
[20] = test system: SF-539 CNS
[21] = test system: NCI-H460 lung
[22] = test system: MCF7 breast
[23] = test system: MALME-3M melanoma
[24] = test system: DU-145 prostate
[25] = test system: RPMI-8226 leukemia
[26] = test system: DMS 114 small cell lung
[27] = test system: NCI-H23 lung
[28] = test system: ACHN renal
[29] = test system: HCT-116 colon
[30] = test system: MDA-MB-231 breast
[31] = test system: NCI-H226 lung
[32] = test system: MDA-MB-435
[33] = test system: IGROV1 ovarian
[34] = test system: UACC-62 melanoma
[35] = test system: SK-MEL-5 melanoma
[36] = test system: HS 578T breast
[37] = test system: OVCAR-4 ovarian
[38] = test system: NCI-H522 lung
[39] = test system: XF 498 CNS
[40] = test system: CAKI-1 renal
[41] = test system: SF-295 CNS
[42] = test system: MOLT-4 leukemia
[43] = test system: M14 melanoma
[44] = test system: SN12C renal
[45] = test system: SW-620 colon
[46] = test system: DMS 273 small cell lung
[47] = test system: SR leukemia
[48] = test system: DLD-1 colon
[49] = test system: SK-MEL-2 melanoma

O=C1C=CC=C[C@@H]2C(C3OCCO3)CC[C@H]12.[C-]#[O+].[C-]#[O+].[C-]#[O+].[Fe] (some centres not stated)
GI50 [1]: 48 µM | TGI [1]: > 100 µM | GI50 [2]: 51.4 µM | TGI [2]: > 100 µM | GI50 [3]: > 100 µM | TGI [3]: > 100 µM | GI50 [4]: > 100 µM | TGI [4]: > 100 µM | GI50 [5]: > 100 µM | TGI [5]: > 100 µM | GI50 [6]: > 100 µM | TGI [6]: > 100 µM | GI50 [7]: 22.8 µM | TGI [7]: 66 µM | GI50 [8]: > 100 µM | TGI [8]: > 100 µM | GI50 [9]: > 100 µM | TGI [9]: > 100 µM | GI50 [10]: > 76.6 µM | TGI [10]: > 100 µM | GI50 [11]: > 100 µM | TGI [11]: > 100 µM | GI50 [12]: 42.7 µM | TGI [12]: > 78.4 µM | GI50 [13]: > 100 µM | TGI [13]: > 100 µM | GI50 [14]: 98.9 µM | TGI [14]: > 100 µM | GI50 [15]: 24.4 µM | TGI [15]: > 89.8 µM | GI50 [16]: 19.9 µM | TGI [16]: 37 µM | GI50 [17]: 49.9 µM | TGI [17]: > 70.4 µM | GI50 [18]: 41.6 µM | TGI [18]: > 100 µM | TGI [19]: > 46.9 µM | GI50 [20]: 44.6 µM | TGI [20]: 77.2 µM | GI50 [21]: 45.2 µM | TGI [21]: > 100 µM | GI50 [22]: 37.3 µM | TGI [22]: > 100 µM | GI50 [23]: 27.9 µM | TGI [23]: 62.3 µM | GI50 [24]: 93.3 µM | TGI [24]: > 100 µM | GI50 [25]: 26.8 µM | TGI [25]: > 82.4 µM | GI50 [26]: 20.1 µM | TGI [26]: 45.2 µM | GI50 [27]: > 52.8 µM | TGI [27]: > 83.7 µM | GI50 [28]: 34.8 µM | TGI [28]: > 65.6 µM | GI50 [29]: 18.9 µM | TGI [29]: 41.5 µM | GI50 [30]: > 100 µM | TGI [30]: > 100 µM | GI50 [31]: > 83.5 µM | TGI [31]: > 100 µM | GI50 [32]: 31.3 µM | TGI [32]: > 100 µM | GI50 [33]: 26 µM | TGI [33]: 78.7 µM | GI50 [34]: > 59.8 µM | TGI [34]: > 100 µM | GI50 [35]: > 100 µM | TGI [35]: > 100 µM | GI50 [36]: > 100 µM | TGI [36]: > 100 µM | GI50 [37]: > 47.9 µM | TGI [37]: > 71.9 µM | GI50 [38]: 29 µM | TGI [38]: 46 µM | GI50 [39]: > 100 µM | TGI [39]: > 100 µM | GI50 [40]: 93.3 µM | TGI [40]: > 100 µM | GI50 [41]: 44.4 µM | TGI [41]: > 100 µM | GI50 [42]: 26.5 µM | TGI [42]: 68.1 µM | GI50 [43]: 37.8 µM | TGI [43]: > 74.9 µM | GI50 [44]: 76.3 µM | TGI [44]: > 100 µM | GI50 [45]: 29.9 µM | TGI [45]: > 100 µM | GI50 [46]: 30.6 µM | TGI [46]: > 100 µM | GI50 [47]: 18.4 µM | TGI [47]: > 83.5 µM | GI50 [48]: 19.8 µM | TGI [48]: 45 µM | GI50 [49]: > 71.1 µM | TGI [49]: > 100 µM
